According to patent US20100015603A1, “Chimeric proteins for measuring atp concentrations in pericellular space and related screening method” (priority 2005, published 2010):

Legend:
pmeLUC = molecular target: T1, pmeLUC (Photinus pyralis, UniProt P08659, N119G/N50D); test: Response of HEK293-pmeLUC cells to extracellular nucleotides (affinity and selectivity of the pmeLUC probe, luminescence); assay type: cell-based; conditions: HEK293-pmeLUC cells; for sensitivity of pmeLUC to other nucleotides: FIG. 2A
T1 construct: expressed in transfected cells
T1 sequence (P08659 with tags, fused parts or gaps N50D/N119G): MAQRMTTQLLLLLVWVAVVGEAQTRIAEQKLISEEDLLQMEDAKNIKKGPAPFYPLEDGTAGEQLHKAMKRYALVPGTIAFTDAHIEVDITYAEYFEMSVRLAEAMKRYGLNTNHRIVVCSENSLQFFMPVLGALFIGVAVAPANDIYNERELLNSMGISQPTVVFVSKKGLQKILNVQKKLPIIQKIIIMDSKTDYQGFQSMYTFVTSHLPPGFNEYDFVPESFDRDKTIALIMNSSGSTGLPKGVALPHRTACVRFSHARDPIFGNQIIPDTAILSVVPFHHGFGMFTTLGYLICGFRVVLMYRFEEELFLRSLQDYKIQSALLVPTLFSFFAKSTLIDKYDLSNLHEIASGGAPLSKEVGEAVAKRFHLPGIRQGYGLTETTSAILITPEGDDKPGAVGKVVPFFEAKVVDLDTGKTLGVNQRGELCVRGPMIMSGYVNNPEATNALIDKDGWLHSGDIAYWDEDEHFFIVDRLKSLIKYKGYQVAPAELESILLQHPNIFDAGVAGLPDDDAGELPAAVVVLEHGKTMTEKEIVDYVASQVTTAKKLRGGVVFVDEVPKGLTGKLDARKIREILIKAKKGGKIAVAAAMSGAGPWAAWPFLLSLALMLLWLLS
Procedure: (§1) ATP was measured in the custom-made luminometer described by Rizzuto and co-workers (Brini et al., 1999; Jouaville et al., 1999). For experiments, cells were plated onto 13 mm coverslips and were placed in a 37° C. thermostatted chamber (diameter 15 mm, height 2 mm) and perfused with a saline solution supplemented with luciferin at a concentration of 5 μM. The chamber was held in a photomultiplier kept in a dark refrigerated (4° C.) box. Light emission was detected by a Thorn EMI photon counting board installed in an IBM-compatible computer. The board allowed storing of the data in the computer memory for further analysis. During the experiments the thermostatted chamber was continuously perfused with buffer by means of a Gilson peristaltic pump. Alternatively, ATP was measured in the supernatants using soluble luciferase in a Firezyme luminometer as previously described (Baricordi et al., 1999; Solini et al, 2004; Zanovello et al., 1990).
Affinity of pmeLUC for ATP is rather low, with a threshold of about 10 μM, however, subsequent ATP additions elicit further increases in light emission that allow building a calibration curve (FIG. 2B). Importantly, pmeLUC is insensitive to all other nucleotides tested (ADP, UTP, UDP and GTP) (FIG. 2A).

human P2X7R = molecular target: T2, human P2X7R (Homo sapiens, UniProt Q99572); test: ATP release through the P2X7 receptor in HEK293-hP2X7/pmeLUC cells, pmeLUC luminescence; assay type: cell-based
T2 construct: expressed in transfected cells; host or cells: HEK293 (HEK293-hP2X7/pmeLUC)
T2 sequence (Q99572 1-595): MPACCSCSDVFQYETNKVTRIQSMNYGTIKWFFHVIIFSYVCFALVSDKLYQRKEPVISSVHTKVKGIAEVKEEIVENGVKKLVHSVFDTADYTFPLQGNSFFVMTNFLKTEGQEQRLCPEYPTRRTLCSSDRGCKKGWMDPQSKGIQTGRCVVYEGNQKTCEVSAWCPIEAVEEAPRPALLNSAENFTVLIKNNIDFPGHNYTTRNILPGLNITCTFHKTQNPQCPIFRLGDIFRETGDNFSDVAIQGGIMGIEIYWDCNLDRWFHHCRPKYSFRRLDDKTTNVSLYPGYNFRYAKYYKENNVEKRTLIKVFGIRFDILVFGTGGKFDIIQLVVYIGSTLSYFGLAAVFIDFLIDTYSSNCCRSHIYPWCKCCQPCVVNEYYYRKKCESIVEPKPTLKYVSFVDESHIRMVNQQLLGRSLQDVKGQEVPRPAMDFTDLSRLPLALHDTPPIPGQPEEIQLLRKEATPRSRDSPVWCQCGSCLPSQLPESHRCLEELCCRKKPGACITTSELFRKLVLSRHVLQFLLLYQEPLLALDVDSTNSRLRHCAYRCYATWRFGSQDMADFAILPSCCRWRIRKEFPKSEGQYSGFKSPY
Procedure: (§2) HEK293 cells were cultured in DMEM-F12 (Sigma-Aldrich). Media were supplemented with 10% heat-inactivated FBS, 100 U/ml penicillin and 100 μg/ml streptomycin (Invitrogen corporation, San Giuliano Milanese, Italy). ACN neuroblastoma cells were cultured in DMEM supplemented with MEM non-essential amino acid solution 100× (Sigma-Aldrich). HEK293 cells were transfected with the calcium phosphate method. Cells transiently expressing the pmeLUC construct were assayed 36 hours after transfection. Clones stably expressing pmeLUC or the P2X7R were generated by culture of the transfected cells in the presence of G418 (0.8 mg/ml, added 48 hours after transfection) for 3 weeks. Stable P2X7- or pmeLUC-expressing clones were kept in the continuous presence of 0.2 mg/ml of G418 sulphate (Geneticin) (Calbiochem, la Jolla, Calif.). ACN cells were transfected with pmeLUC by lipofectamine (Invitrogen) and tested 24 hours after transfection. Briefly, cells were incubated in 250 μl serum-free transfection medium (OPTIMEM) in the presence of lipofectamine-plus-DNA (0.4 μg per well). After 3 hours incubation 1 ml of DMEM plus 10% FBS supplemented with MEM non-essential amino acid solution 100× (Sigma-Aldrich) was added. Cells were assayed 24 hours after transfection. In order to allow a high level of plasma membrane expression of the transfected constructs, cells were incubated overnight in the presence of 1 mM DTT (Mezghrani et al, 2001). Furthermore, they were also kept at room temperature (21° C.) for two hours prior to transfer into the thermostated luminometer chamber.
as §1
Early experiments carried out not only by the authors of the present invention had shown that supernatants from cells expressing the P2X7 receptor contained a high level of ATP, which was not due to an accelerated rate of cell lysis (Baricordi et al., 1999; Adinolfi et al., 2003; Solini et al., 2004). […] To test such hypothesis several HEK293 clones were generated stably transfected with the human or rat P2X7R (HEK293-hP2X7 or HEK293-rP2X7, respectively). These clones were then transfected with pmeLUC (HEK293-P2X7/pmeLUC).

[1] = tested on: A549 pulmonary epithelial cells; test: ATP release / photon emission in A549 pulmonary epithelial cells expressing pmeLUC probe; assay type: cell-based, human; conditions: ATP 5 μM to 1 mM, FIG. 7A
Procedure: (§3) Cells cultured in flasks for cell culture (75 cm^2) were transfected with a vector containing the produced chimeric probe, by transfection techniques more suitable for the cell line under examination. As experimental model established macrophage cells, named J774, and established pulmonary epithelial cells, named […], were used after being transfected with pmeLUC probe using TransFectin (Biorad) that ensure the major percent of positive cells for these cell lines.
(§4) 36 hours after transfection cells were removed from the bottom of flasks for trypsinization. Cell suspension was transferred in a Falcon tube (from 15 to 50 ml) and centrifuged at 1200 rpm at 20° C. and finally cell precipitate was re-suspended in DMEM medium supplemented with DTT (1 mM).
(§5) 50 μl of suspension containing transfected cells (corresponding to about 50.000 cells) were seeded in each well of the plate. Cells were incubated overnight.
(§6) The day after seeding cells were incubated with a saline solution (KRB: Krebs-Ringer modified buffer: 125 mM NaCl, 5 mM KCl, 1 mM Na3PO4, 1 mM MgSO4, 1 mM CaCl2, 5.5 mM glucose, 20 mM HEPES, pH 7.4, 37° C.) supplemented with luciferin (5 μM) and were directly contacted with a photomultiplier measuring photon emission by luciferase.

rat P2X7R = molecular target: T3, rat P2X7R (Rattus norvegicus, UniProt Q64663); test: ATP release through the P2X7 receptor in HEK293-rP2X7/pmeLUC cells, pmeLUC luminescence; assay type: cell-based
T3 construct: expressed in transfected cells; host or cells: HEK293 (HEK293-rP2X7/pmeLUC)
T3 sequence (Q64663 1-595): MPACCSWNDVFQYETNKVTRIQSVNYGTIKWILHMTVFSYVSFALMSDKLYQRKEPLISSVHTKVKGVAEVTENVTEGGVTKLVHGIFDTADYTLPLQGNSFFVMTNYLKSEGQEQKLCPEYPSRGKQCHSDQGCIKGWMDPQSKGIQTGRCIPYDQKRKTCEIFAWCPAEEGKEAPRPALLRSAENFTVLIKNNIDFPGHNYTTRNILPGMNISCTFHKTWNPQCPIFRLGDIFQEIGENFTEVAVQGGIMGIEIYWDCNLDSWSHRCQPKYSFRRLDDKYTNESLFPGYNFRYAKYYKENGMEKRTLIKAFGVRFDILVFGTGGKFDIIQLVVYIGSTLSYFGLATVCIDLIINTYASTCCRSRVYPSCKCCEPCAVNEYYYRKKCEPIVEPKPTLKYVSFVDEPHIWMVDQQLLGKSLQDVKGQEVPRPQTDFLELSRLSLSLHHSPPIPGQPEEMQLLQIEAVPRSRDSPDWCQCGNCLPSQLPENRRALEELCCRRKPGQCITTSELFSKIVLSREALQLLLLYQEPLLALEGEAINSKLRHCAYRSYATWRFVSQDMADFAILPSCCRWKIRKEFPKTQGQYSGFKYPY
Procedure: as §2
ATP was measured in the custom-made luminometer described by Rizzuto and co-workers (Brini et al., 1999; Jouaville et al., 1999). […] Light emission was detected by a Thorn EMI photon counting board installed in an IBM-compatible computer. […] Alternatively, ATP was measured in the supernatants using soluble luciferase in a Firezyme luminometer as previously described (Baricordi et al., 1999; Solini et al, 2004; Zanovello et al., 1990). […]

J774 macrophage cells = test: ATP release / photon emission in J774 macrophage cells expressing pmeLUC probe; assay type: cell-based, mouse; conditions: ATP 5 μM to 1 mM, FIG. 6A
Procedure: as §3, §4, §5, §6

HEK293-mock cells = test: Extracellular ATP in supernatants of HEK293-mock cells, soluble luciferase; assay type: cell-based
Procedure: as §1
(§7) As an independent proof that HEK293-P2X7 cells release a larger amount of ATP than mock-transfected HEK293 (HEK293-mock), extracellular ATP was measured in the supernatants using soluble luciferase. Quiescent HEK293-mock cells maintained an extracellular ATP concentration of 80±20 nM (n=12), compared to 220±34 nM (n=10) for HEK-hP2X7. […]

native P2X7R = molecular target: T4, native P2X7R (Homo sapiens, UniProt Q99572); test: ATP release from ACN neuroblastoma cells transfected with pmeLUC; assay type: cell-based; conditions: ACN neuroblastoma cells, FIG. 3E
T4 construct: the human ACN neuroblastoma, a cell line expressing the native P2X7R; endogenous in cells; host or cells: ACN human neuroblastoma cells, transiently transfected with pmeLUC as sensor
T4 sequence (Q99572 1-595): T2 sequence (Q99572 1-595)
Procedure: HEK293 cells were cultured in DMEM-F12 (Sigma-Aldrich). Media were supplemented with 10% heat-inactivated FBS, 100 U/ml penicillin and 100 μg/ml streptomycin (Invitrogen corporation, San Giuliano Milanese, Italy). ACN neuroblastoma cells were cultured in DMEM supplemented with MEM non-essential amino acid solution 100× (Sigma-Aldrich). HEK293 cells were transfected with the calcium phosphate method. Cells transiently expressing the pmeLUC construct were assayed 36 hours after transfection. Clones stably expressing pmeLUC or the P2X7R were generated by culture of the transfected cells in the presence of G418 (0.8 mg/ml, added 48 hours after transfection) for 3 weeks. Stable P2X7- or pmeLUC-expressing clones were kept in the continuous presence of 0.2 mg/ml of G418 sulphate (Geneticin) (Calbiochem, la Jolla, Calif.). ACN cells were transfected with pmeLUC by lipofectamine (Invitrogen) and tested 24 hours after transfection. […]
(§8) ATP was measured in the custom-made luminometer described by Rizzuto and co-workers (Brini et al., 1999; Jouaville et al., 1999). […] Light emission was detected by a Thorn EMI photon counting board installed in an IBM-compatible computer. […] Alternatively, ATP was measured in the supernatants using soluble luciferase in a Firezyme luminometer as previously described (Baricordi et al., 1999; Solini et al, 2004; Zanovello et al., 1990).
Differences in basal levels of luminescence emission are neutralized by expressing luminescence as percentage increase over basal (FIG. 3B), however, the higher basal luminescence of HEK293-hP2X7/pmeLUC might reflect a real increased level of pericellular ATP compared to HEK293-pmeLUC, rather than a higher expression of pmeLUC. In this case, reporting luminescence as percent increase over basal would mask such a difference in the extracellular ATP concentration. To clarify this issue, total pmeLUC protein was measured by western blotting (FIG. 3C). […] To measure quantitatively surface pmeLUC expression, different clones were analyzed by FACS. […]

HEK293-pmeLUC cells = assay type: cell-based; conditions: HEK293-pmeLUC cells (no P2X7R)
Procedure: as §2, §8

HEK293-hP2X7 cells = test: Extracellular ATP in supernatants of HEK293-hP2X7 cells, soluble luciferase; assay type: cell-based; conditions: n=10, quiescent 220±34 nM
Procedure: as §1, §7

Nc1ncnc2c1ncn2[C@@H]1O[C@H](COP(=O)(O)OP(=O)(O)O)[C@@H](O)[C@H]1O [ADP]
sensitivity of pmeLUC to other nucleotides (pmeLUC): insensitive

Nc1ncnc2c1ncn2[C@@H]1O[C@H](COP(=O)(O)OP(=O)(O)OP(=O)(O)O)[C@@H](O)[C@H]1O [ATP]
ATP concentration at which luminescence increase over control cells is detectable (human P2X7R; HEK293 cells transfected with human P2X7R, FIG. 4B): higher than 100 μM | photon emission by the pmeLUC probe on addition of outer ATP [1]: proportional to ATP concentration applied | threshold of pmeLUC for ATP (affinity) (pmeLUC; luminescence percent increase over basal): about 10 μM | ATP concentration at which extra-increase in luminescence over control cells is detectable (rat P2X7R; HEK293 cells transfected with rat P2X7R, FIG. 4A): 10 to 50 µM | photon emission by the pmeLUC probe on addition of outer ATP (J774 macrophage cells): proportional to ATP concentration applied

Nc1ncnc2c1ncn2[C@@H]1O[C@H](COP(=O)(O)OP(=O)(O)OP(=O)(O)O)[C@@H](OC(=O)c2ccc(C(=O)c3ccccc3)cc2)[C@H]1O [BzATP, Benzoyl ATP]
luminescence increase on addition of BzATP (human P2X7R; HEK293-hP2X7/pmeLUC cells): large luminescence increase | peak ATP concentration from calibration of BzATP triggered luminescence increase (human P2X7R; HEK293-hP2X7/pmeLUC cells): about 250 μM | effect of BzATP on extracellular ATP in supernatants (HEK293-mock cells): no effect | ATP release induced by BzATP (native P2X7R): large ATP release | luminescence increase on addition of BzATP (HEK293-pmeLUC cells): not | extracellular ATP level in supernatants after addition of BzATP (HEK293-hP2X7 cells): about 400±55 nM | luminescence increase on addition of BzATP (rat P2X7R; HEK293-rP2X7/pmeLUC cells (not shown)): large luminescence increase

Nc1nc2c(ncn2[C@@H]2O[C@H](COP(=O)(O)OP(=O)(O)OP(=O)(O)O)[C@@H](O)[C@H]2O)c(=O)[nH]1 [GTP]
sensitivity of pmeLUC to other nucleotides (pmeLUC): insensitive
